In ChEMBL document CHEMBL4043153, “Lead selection of antiparasitic compounds from a focused library of benzenesulfonyl derivatives of heterocycles” (Bioorg Med Chem Lett, 2017) one finds inhibition of growth data, which are given here for 16 compounds.

Holding throughout (assay type): functional
For test [1], the system named is Leishmania donovani. Description: Antiparasitic activity against Leishmania donovani MHOM-ET-67/L82 axenic amastigotes assessed as growth inhibition at 0.8 ug/ml after 72 hrs by resazurin dye-based fluorometric analysis relative to control. To be noted: MHOM-ET-67/L82, 72 h, read-out: GI. A general note: Alamar Blue is a resazurin reagent that responds to reducing activity.

In test [2] the test system is Trypanosoma cruzi. Briefly: Antiparasitic activity against Trypanosoma cruzi Tulahuen C4 intracellular amastigotes infected in rat L6 cells assessed as growth inhibition at 4.8 ug/ml after 96 hrs by CPRG/Nonidet reagent based photometric analysis relative to control. To be noted: Tulahuen C4, L6, 96 h, read-out: GI.
Test [3] concerns Trypanosoma cruzi. Briefly: Antiparasitic activity against Trypanosoma cruzi Tulahuen C4 intracellular amastigotes infected in rat L6 cells assessed as growth inhibition at 0.8 ug/ml after 96 hrs by CPRG/Nonidet reagent based photometric analysis relative to control. To be noted: Tulahuen C4, L6, 96 h, read-out: GI.
Test [4] relates to Plasmodium falciparum. Description: Antiparasitic activity against intraerythrocytic form of chloroquine/pyrimethamine-resistant Plasmodium falciparum K1 infected in human RBC assessed as growth inhibition at 0.8 ug/ml preincubated for 48 hrs followed by [3H]-hypoxanthine addition measured after 24 hrs by liquid scintillation counting analysis relative to control. To be noted: read-out: GI.

The test system of test [5] is Trypanosoma brucei rhodesiense. Description: Antiparasitic activity against Trypanosoma brucei rhodesiense STIB 900 trypomastigote bloodstream form assessed as growth inhibition at 4.8 ug/ml after 72 hrs by resazurin dye-based fluorometric analysis relative to control. To be noted: STIB 900, 72 h, read-out: GI.
The test system of test [6] is Leishmania donovani. Description: Antiparasitic activity against Leishmania donovani MHOM-ET-67/L82 axenic amastigotes assessed as growth inhibition at 4.8 ug/ml after 72 hrs by resazurin dye-based fluorometric analysis relative to control. To be noted: MHOM-ET-67/L82, 72 h, read-out: GI.
Test [7] deals with Plasmodium falciparum. Briefly: Antiparasitic activity against intraerythrocytic form of chloroquine/pyrimethamine-resistant Plasmodium falciparum K1 infected in human RBC assessed as growth inhibition at 4.8 ug/ml preincubated for 48 hrs followed by [3H]-hypoxanthine addition measured after 24 hrs by liquid scintillation counting analysis relative to control. To be noted: read-out: GI.

Test [8] has as its system Trypanosoma brucei rhodesiense. Description: Antiparasitic activity against Trypanosoma brucei rhodesiense STIB 900 trypomastigote bloodstream form assessed as growth inhibition at 0.8 ug/ml after 72 hrs by resazurin dye-based fluorometric analysis relative to control. To be noted: STIB 900, 72 h, read-out: GI.

As to `CC(=O)c1ccc(S(=O)(=O)N2c3ccccc3CC2C)cc1` (stereo not drawn), the inhibition of growth at 0.8 µg/mL in the test with Leishmania donovani [1] worked out at 0%; with Trypanosoma cruzi [3], 0%; in the test on Plasmodium falciparum [4] it was 7.3%; in test [8] it was 0%. Besides, the inhibition of growth at 4.8 µg/mL in the test on Trypanosoma cruzi [2] came out at 23.7%; in test [5], 0.4%; in the test on Leishmania donovani [6], 26.8%; with Plasmodium falciparum [7] it was 46.3%.
Consider `O=S(=O)(c1ccc(Br)cc1)N1CCc2ccccc21`, for which the inhibition of growth at 0.8 µg/mL in the test on Leishmania donovani [1] stood at 17.9%; in the test on Trypanosoma cruzi [3] it was 4.2%; in the test on Plasmodium falciparum [4] it was 9.8%; in test [8], 5.3%. Also, the inhibition of growth at 4.8 µg/mL came out at 28.1% with Trypanosoma cruzi [2], 0% in test [5], 77.7% in the test with Leishmania donovani [6] and 63.5% with Plasmodium falciparum [7].
For `O=S(=O)(c1ccc(C(F)(F)F)cc1)N1CCc2ccccc2C1`, the inhibition of growth at 0.8 µg/mL stood at 40.8% in the test with Leishmania donovani [1], 0% in the test on Trypanosoma cruzi [3], 0.6% in the test with Plasmodium falciparum [4] and 0.7% in test [8]. Besides, the inhibition of growth at 4.8 µg/mL in the test with Trypanosoma cruzi [2] came out at 27.3%; in test [5] it was 5.8%; in the test on Leishmania donovani [6], 58.3%; in the test with Plasmodium falciparum [7], 22.7%.
Regarding `O=S(=O)(c1ccc(F)cc1)N1CCc2ccccc21`, the inhibition of growth at 0.8 µg/mL in the test with Leishmania donovani [1] is 11%; with Trypanosoma cruzi [3], 0%; in the test with Plasmodium falciparum [4], 1.5%; in test [8] it was 12.6%. The inhibition of growth at 4.8 µg/mL worked out at 0.2% in the test on Trypanosoma cruzi [2], 19.2% in test [5], 62.7% in the test with Leishmania donovani [6] and 28.2% in the test on Plasmodium falciparum [7].
Regarding `Cc1ccc(S(=O)(=O)N2CCc3ccccc32)cc1`, the inhibition of growth at 0.8 µg/mL with Leishmania donovani [1] came out at 8.1%; in the test with Trypanosoma cruzi [3] it was 0%; in the test on Plasmodium falciparum [4] it was 0%; in test [8], 3.1%. Further, the inhibition of growth at 4.8 µg/mL was 14.4% in the test on Trypanosoma cruzi [2], 0% in test [5], 63.7% in the test on Leishmania donovani [6] and 20% in the test on Plasmodium falciparum [7].
In the case of `O=S(=O)(c1cccc(C(F)(F)F)c1)n1ccc2ccccc21`, the inhibition of growth at 0.8 µg/mL in the test on Leishmania donovani [1] amounted to 11.7%; in the test on Trypanosoma cruzi [3], 0%; in the test with Plasmodium falciparum [4], 5%; in test [8], 0%. The inhibition of growth at 4.8 µg/mL in the test with Trypanosoma cruzi [2] is 3.3%; in test [5], 0%; in the test with Leishmania donovani [6] it was 45.7%; in the test on Plasmodium falciparum [7], 61.1%.
Regarding `CC(=O)c1ccc(S(=O)(=O)N2c3ccccc3CCC2C)cc1` (stereo not drawn), the inhibition of growth at 0.8 µg/mL with Leishmania donovani [1] was determined as 6%; with Trypanosoma cruzi [3], 0%; in the test with Plasmodium falciparum [4], 4%; in test [8], 0%. The inhibition of growth at 4.8 µg/mL came out at 91.9% in the test with Trypanosoma cruzi [2], 1.5% in test [5], 45.7% with Leishmania donovani [6] and 29.8% with Plasmodium falciparum [7].
As to `CC(C)(C)c1ccc(S(=O)(=O)N2CCc3ccccc32)cc1`, the inhibition of growth at 0.8 µg/mL in the test on Leishmania donovani [1] stood at 49.4%; in the test with Trypanosoma cruzi [3], 5.2%; in the test on Plasmodium falciparum [4], 29.5%; in test [8], 1.9%. The inhibition of growth at 4.8 µg/mL in the test on Trypanosoma cruzi [2] worked out at 54.1%; in test [5], 5.8%; in the test with Leishmania donovani [6] it was 100%; in the test with Plasmodium falciparum [7], 99.1%.
Take `CC(C)(C)c1ccc(S(=O)(=O)N2CCCc3ccccc32)cc1`: the inhibition of growth at 0.8 µg/mL was found to be 49.8% with Leishmania donovani [1], 0% with Trypanosoma cruzi [3], 23.5% in the test with Plasmodium falciparum [4] and 6.7% in test [8]. Further, the inhibition of growth at 4.8 µg/mL in the test with Trypanosoma cruzi [2] came to 55.6%; in test [5], 5.5%; in the test with Leishmania donovani [6] it was 99.1%; in the test with Plasmodium falciparum [7] it was 91.6%.
`CC(C)(C)c1ccc(S(=O)(=O)n2ccc3ccccc32)cc1`: the inhibition of growth at 0.8 µg/mL with Leishmania donovani [1] stood at 27.3%; in the test on Trypanosoma cruzi [3], 0%; in the test with Plasmodium falciparum [4], 13.9%; in test [8], 0%. Also, the inhibition of growth at 4.8 µg/mL turned out to be 0% with Trypanosoma cruzi [2], 0% in test [5], 92.2% in the test on Leishmania donovani [6] and 92.3% with Plasmodium falciparum [7].
`CC1Cc2ccccc2N1S(=O)(=O)c1ccc(C(F)(F)F)cc1` (stereo not drawn): the inhibition of growth at 0.8 µg/mL in the test with Leishmania donovani [1] worked out at 17.9%; with Trypanosoma cruzi [3] it was 0%; with Plasmodium falciparum [4] it was 12.7%; in test [8], 0%. For the same compound, the inhibition of growth at 4.8 µg/mL in the test on Trypanosoma cruzi [2] was 54.6%; in test [5], 1.2%; with Leishmania donovani [6], 86.2%; in the test with Plasmodium falciparum [7], 91.4%.
For the compound `O=S(=O)(c1ccc(C(F)(F)F)cc1)n1ccc2ccccc21`, the inhibition of growth at 0.8 µg/mL was 15.9% with Leishmania donovani [1], 0% in the test with Trypanosoma cruzi [3], 4.3% in the test with Plasmodium falciparum [4] and 1.4% in test [8]. For the same compound, the inhibition of growth at 4.8 µg/mL in the test with Trypanosoma cruzi [2] was determined as 0%; in test [5], 0%; with Leishmania donovani [6], 52.8%; with Plasmodium falciparum [7] it was 53.2%.
As to `O=S(=O)(c1cccc(C(F)(F)F)c1)N1CCCc2ccccc21`, the inhibition of growth at 0.8 µg/mL in the test on Leishmania donovani [1] turned out to be 23.7%; with Trypanosoma cruzi [3] it was 10.4%; in the test on Plasmodium falciparum [4] it was 6.6%; in test [8], 2.4%. For the same compound, the inhibition of growth at 4.8 µg/mL in the test with Trypanosoma cruzi [2] stood at 62.6%; in test [5], 2.5%; with Leishmania donovani [6] it was 73.1%; with Plasmodium falciparum [7] it was 68%.
For the compound `CC(=O)c1ccc(S(=O)(=O)N2CCc3ccccc3C2)cc1`, the inhibition of growth at 0.8 µg/mL in the test on Leishmania donovani [1] came to 20.1%; in the test with Trypanosoma cruzi [3] it was 0%; with Plasmodium falciparum [4], 0.3%; in test [8], 0%. Also, the inhibition of growth at 4.8 µg/mL in the test on Trypanosoma cruzi [2] amounted to 13.4%; in test [5], 0%; in the test with Leishmania donovani [6], 46.1%; with Plasmodium falciparum [7], 9.7%.
`O=[N+]([O-])c1cccc(S(=O)(=O)n2ccc3ccccc32)c1`: the inhibition of growth at 0.8 µg/mL in the test with Leishmania donovani [1] came out at 11.7%; in the test with Trypanosoma cruzi [3], 0%; in the test with Plasmodium falciparum [4], 8%; in test [8], 1.9%. Also, the inhibition of growth at 4.8 µg/mL is 40.5% with Trypanosoma cruzi [2], 3.9% in test [5], 59.3% in the test on Leishmania donovani [6] and 68.8% with Plasmodium falciparum [7].
For `O=S(=O)(c1ccc(C(F)(F)F)cc1)n1nnc2ccccc21`, the inhibition of growth at 0.8 µg/mL in the test on Leishmania donovani [1] turned out to be 21.8%; in the test with Trypanosoma cruzi [3] it was 5.5%; with Plasmodium falciparum [4], 0%; in test [8] it was 3.4%. The inhibition of growth at 4.8 µg/mL worked out at 3% in the test on Trypanosoma cruzi [2], 0.4% in test [5], 44.8% with Leishmania donovani [6] and 1% with Plasmodium falciparum [7].
